# Data reported in patent US20190117675A1, “Compositions And Methods To Treat And/Or Prevent Vision Disorders Of The Lens Of The Eye” (Helix Holding Company, priority 2014, published 2019).
# Entries after “also recorded” stand apart in the source; their conditions may differ.
# How the values were obtained:
# [1] = tested on: various cataract-causing crystallin mutants; assay: Aggresome / intracellular aggregate formation of crystallin mutants in transfected cells (confocal microscopy); assay type: cell-based; conditions: 0-40 μM sterols in 2% DMSO, 2 h treatment then 12 h culture; lanosterol effect dose-dependent
# Protocol: The effect of lanosterol or cholesterol on the aggresome formation of various crystallins was studied by transfecting the cells using plasmids containing various crystallin genes. The cells were cultivated for 24 h to enable efficient protein expression and aggresome formation. Then the cells were treated with 0-40 μM sterols in 2% DMSO. The cells treated with 2% DMSO were used as the control. After treatment for 2 h, the cells were moved to fresh DMEM medium containing 10% fetal bovine serum and further cultivated for 12 h. Then the cells were used for microscopy analysis.
# The microscopy samples were prepared by washing the slips by phosphate buffered saline (PBS) three times. The cells were fixed with 4% paraformaldehyde for 40 min followed by three times washing with PBS. The cells were permeabilized with 0.1% Triton X-100 (Sigma) in PBS for 10 min and blocked with 5% normal goat serum in PBS for 1 h at 37° C. Immunostaining was carried out by adding mouse anti-Flag antibody (1:500) or anti-p62 antibody (1:200) in PBS buffer containing 5% normal goat serum and cultivated for 1 h at 37° C. Then the slips were washed three times with PBS, and further incubated with Alexa 649-conjugated goat anti-mouse IgG (1:250) for 1 h at ambient temperature. The nuclei were counterstained with Hoechst 33342. The mounted cells were analyzed using a Carl Zeiss LSM 710 confocal microscope.
# [2] = tested on: aA-crystallin-Y118D and aB-crystallin-R120G; assay: Dissolving of accumulated crystal protein in cells carrying two crystallin mutant plasmids; assay type: cell-based; conditions: 10 uM, compared with 1% DMSO solution
# Protocol: FIG. 13. Two mutant crystal proteins were introduced into cells. The accumulated crystal protein were treated by adding different agents.
# Cyclopentanoperhy drophenanthrene compounds of the present invention refers to a compound containing cyclopentanoperhy drophenanthrene skeleton structure, including its derivatives. After the two crystal protein mutant plasmid aA-crystallin-Y118D and aB-crystallin-R120G were introduced into cells, we investigated the lanosterol and its derivatives as well as cholesterol (Cholesterol) for their effects on intracellular accumulation of crystal protein. Not all cyclopentanoperhy drophenanthrene compound have the same effect.
# [3] = tested on: aggregates of various WT and mutated crystallins; assay: In vitro protein assay: dissociation of preformed crystallin aggregates (turbidity, soluble protein, EM); assay type: biochemical; conditions: 37° C.; for dissociation of aggregates of various WT and mutated crystallins: in vitro protein assay, 50 μM sterol in 50 μM DPPS liposome
# Protocol: Evaluation of the effect of lanosterol on the dissolution of crystallin aggregates by turbidity. Crystallin aggregates were formed by incubating 5mgml21 protein solution at 60° C. for 2 h (α-crystallins) or 37° C. for 48 h (β- and γ-crystallins) in the presence of 1M guanidine chloride. The preformed aggregates were re-suspended in PBS at a final protein concentration of 0.2 mg/ml and were treated with 500 μM sterols in 500 μM DPPC liposome and incubated at 37° C. for 24 h. Aggregates treated with 500 μM DPPC liposome only were used as the controls.
# The α-crystallin aggregates were formed by incubating 5 mg/ml protein solutions at 60° C. for 48 h in the presence of 1 M guanidine chloride. The β- and γ-crystallin aggregates were prepared by incubating the protein solutions at 37° C. and pH 3 for 48 h. The preformed aggregates were re-suspended in PBS with a final protein concentration of 0.1 mg/ml. The re-suspended aggregates were treated by 50 μM sterols in 50 μM DPPS liposome and incubated at 37° C. for 144 h. The aggregates treated by 50 μM DPPS liposome were used as the controls. The supernatant and precipitation fractions were separated by centrifugation. The protein concentrations in the supernatant fraction were determined by absorbance at 280 nm and the percentages of the soluble proteins were calculated from three independent repetitions.
# The recombinant his-tagged WT and mutated β- and γ-crystallin proteins were overexpressed in E. coli Rosetta and purified by Ni-NTA affinity column followed by gel filtration chromatography using the same protocol as those described elsewhere 13,14,16,18. The overexpression and purification of the non-tagged αA- and αB-crystallins were performed as described previously 19. The purity of the proteins were estimated to be above 95% as evaluated by one homogeneous band on 12.5% SDS-PAGE, 10% native-PAGE and a single peak in the size-exclusion chromatographyprofile. The protein concentration was determined according to the Bradford method by using BSA as the standard 20. All protein samples were prepared in 20 mM PBS buffer containing 150 mM NaCl, 1 mM EDTA and 1 mM DTT.
# (§1) The aggregates of the WT and mutated αA- and αB-crystallin proteins were obtained by heating the proteins solutions containing 1 M guanidine chloride (ultrapure, Sigma) with a concentration of 5 mg/ml at 60° C. for 48 h. The aggregates of the WT and mutated β- and γ-crystallins were prepared by heating the protein solutions at pH 3 and 37° C. for 48 h. The formation of aggregates was confirmed by turbidity (absorbance at 400 nm) and transmission electron microscope (EM) measurements. The preformed aggregates were resuspended in 20 mM PBS with a final concentration of 0.1 mg/ml (approximately 5 μM). The resuspended aggregates were treated by 50 μM lanosterol or cholesterol in liposomes formed by 50 μM DPPS at 37° C. After 72 h treatment, the protein solutions were used for negative-stained EM observations. After 144 h incubation, the protein solutions were used for turbidity measurements and determinations of protein concentrations in the soluble fractions. The soluble proteins were determined by centrifuge the protein solutions to separate the supernatant and precipitation fractions. Then the protein concentration in the supernatant was determined by the Bradford method. The EM samples were prepared by depositing the protein solutions onto a freshly glow-discharged carbon coated copper grid. […]
# [4] = molecular target: T1, αB-crystallin R120G mutant (Homo sapiens, UniProt P02511, R120G); assay: Negative-stain EM of aggregates treated with sterol in liposome; assay type: biochemical; conditions: negatively stained EM
# T1 construct: made in house
# T1 sequence (P02511 1-175 R120G): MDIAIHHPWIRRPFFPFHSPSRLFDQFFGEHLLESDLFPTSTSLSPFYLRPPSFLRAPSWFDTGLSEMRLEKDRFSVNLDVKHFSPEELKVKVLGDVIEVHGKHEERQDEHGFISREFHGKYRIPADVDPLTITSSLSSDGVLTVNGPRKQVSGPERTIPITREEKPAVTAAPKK
# Protocol: Representative negatively stained EM pictures of the aggregates of αB-crystallin R120G mutant treated by liposome, lanosterol in liposome and cholesterol in liposome, respectively. The EM samples were stained by 1.25% uranyl acetate.
# Quantitative analysis was performed by calculating the number of particles with length over 50 nm from six randomly picked viewing field. Each viewing field contained 30-50 particles.
# as §1, with “After 72 h treatment, the protein solutions were used for negative-stained EM observations. After 144 h incubation, the protein solutions were used for turbidity measurements and determinations of protein concentrations in the soluble fractions.” left out, “method.” for “method. The EM samples were prepared by depositing the protein solutions onto a freshly glow-discharged carbon coated copper grid.”
# [5] = Lanosterol eye drop formulation evaluation (stability, irritation, intraocular bioavailability); conditions: dissolved in pure aqueous solution
# Description: The optimal formulation was selected based on the stability of the active ingredient, irritation, and intraocular bioavailability of the eye drops.
smiles,measurement,setting,value
CC(C)=CCC[C@@H](C)[C@H]1CC[C@@]2(C)C3=C(CC[C@]12C)[C@@]1(C)CC[C@H](O)C(C)(C)[C@@H]1CC3 [Lanosterol],intracellular aggregation of various cataract-causing crystallin mutants,[1],significantly reduced intracellular aggregation
same,dissolving of accumulated crystal protein,[2],significantly dissolve accumulated crystals protein; also recorded: significant dissolving of the accumulated crystal protein
same,dissolution of crystallin aggregates by turbidity,"[3]; 500 μM sterols in 500 μM DPPC liposome, 24 h, 0.2 mg/ml protein",could dissociate the aggregates
same,dissociation of aggregates of various WT and mutated crystallins,[3],can dissociate the preformed amyloid-like fibrils/aggregates
same,dissociation of aggregates of various WT and mutated crystallins,[3]; listed as lanosterol,could dissociate the aggregates
same,dissociation of aggregates formed by αB-crystallin R120G mutant (number of particles with length over 50 nm),[4],dissociates the aggregates
same,stability and solubility of lanosterol,[5],poor stability and low solubility
